Tests used:
Format in all cases: ADME
[1] = target: UDP-glucuronosyltransferase 2A1 (Homo sapiens, UniProt P0DTE4); assay: Substrate of human UDP-glucuronosyltransferase UGT2A1
[2] = target: T1, UDP-glucuronosyltransferase 1A3 (Homo sapiens, UniProt P35503); assay: Substrate of human UDP-glucuronosyltransferase UGT1A3
T1 sequence (P35503 whole entry): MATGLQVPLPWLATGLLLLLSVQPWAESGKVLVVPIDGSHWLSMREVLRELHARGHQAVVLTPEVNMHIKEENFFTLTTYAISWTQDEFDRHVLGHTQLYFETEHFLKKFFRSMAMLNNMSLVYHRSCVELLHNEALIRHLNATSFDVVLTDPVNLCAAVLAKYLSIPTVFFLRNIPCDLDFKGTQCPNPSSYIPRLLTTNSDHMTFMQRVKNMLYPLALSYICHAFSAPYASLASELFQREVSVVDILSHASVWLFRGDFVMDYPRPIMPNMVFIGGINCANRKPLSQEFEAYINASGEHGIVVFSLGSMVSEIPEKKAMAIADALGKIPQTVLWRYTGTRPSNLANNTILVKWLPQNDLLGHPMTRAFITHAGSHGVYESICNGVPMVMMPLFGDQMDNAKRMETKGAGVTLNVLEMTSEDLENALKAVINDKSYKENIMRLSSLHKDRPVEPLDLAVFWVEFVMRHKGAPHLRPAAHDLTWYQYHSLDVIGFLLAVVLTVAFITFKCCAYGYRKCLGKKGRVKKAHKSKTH

[3] = target: T2, UDP-glucuronosyltransferase 1A8 (Homo sapiens, UniProt Q9HAW9); assay: Substrate of human UDP-glucuronosyltransferase UGT1A8
T2 sequence (Q9HAW9 whole entry): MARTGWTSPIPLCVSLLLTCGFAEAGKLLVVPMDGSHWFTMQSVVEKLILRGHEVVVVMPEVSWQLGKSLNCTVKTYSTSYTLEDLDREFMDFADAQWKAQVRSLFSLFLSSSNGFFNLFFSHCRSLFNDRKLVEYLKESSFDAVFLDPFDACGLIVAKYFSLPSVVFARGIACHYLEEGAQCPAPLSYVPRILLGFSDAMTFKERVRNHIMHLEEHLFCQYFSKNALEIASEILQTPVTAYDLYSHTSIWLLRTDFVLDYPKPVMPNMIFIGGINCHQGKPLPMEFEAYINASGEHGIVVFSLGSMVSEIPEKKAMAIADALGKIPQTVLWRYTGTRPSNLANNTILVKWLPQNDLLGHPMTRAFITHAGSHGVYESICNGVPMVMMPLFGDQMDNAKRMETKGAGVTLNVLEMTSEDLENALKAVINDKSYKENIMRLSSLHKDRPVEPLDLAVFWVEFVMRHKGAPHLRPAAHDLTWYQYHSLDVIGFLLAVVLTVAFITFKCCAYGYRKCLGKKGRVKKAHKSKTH

[4] = target: T3, UDP-glucuronosyltransferase 2B7 (Homo sapiens, UniProt P16662); assay: Substrate of human UDP-glucuronosyltransferase UGT2B7
T3 sequence (P16662 whole entry): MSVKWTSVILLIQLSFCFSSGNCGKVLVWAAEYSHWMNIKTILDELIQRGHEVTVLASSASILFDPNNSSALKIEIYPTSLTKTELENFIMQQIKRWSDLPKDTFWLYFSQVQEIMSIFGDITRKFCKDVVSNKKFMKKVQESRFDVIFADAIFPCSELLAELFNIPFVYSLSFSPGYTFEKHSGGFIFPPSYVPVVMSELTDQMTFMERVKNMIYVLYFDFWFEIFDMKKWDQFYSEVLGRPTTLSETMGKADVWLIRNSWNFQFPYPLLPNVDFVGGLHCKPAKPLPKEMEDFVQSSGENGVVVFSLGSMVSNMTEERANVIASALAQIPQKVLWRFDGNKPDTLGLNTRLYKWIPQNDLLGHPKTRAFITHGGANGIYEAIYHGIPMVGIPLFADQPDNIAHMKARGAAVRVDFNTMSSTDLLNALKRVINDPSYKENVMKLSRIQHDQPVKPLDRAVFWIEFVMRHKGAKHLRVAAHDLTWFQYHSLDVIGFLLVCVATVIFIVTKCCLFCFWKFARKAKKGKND

[5] = target: Glutathione S-transferase omega-2 (Homo sapiens, UniProt Q9H4Y5); assay: Substrates for human cytosolic glutathione transferase GSTO2
Glutathione S-transferase omega-2, sequence (Q9H4Y5 whole entry): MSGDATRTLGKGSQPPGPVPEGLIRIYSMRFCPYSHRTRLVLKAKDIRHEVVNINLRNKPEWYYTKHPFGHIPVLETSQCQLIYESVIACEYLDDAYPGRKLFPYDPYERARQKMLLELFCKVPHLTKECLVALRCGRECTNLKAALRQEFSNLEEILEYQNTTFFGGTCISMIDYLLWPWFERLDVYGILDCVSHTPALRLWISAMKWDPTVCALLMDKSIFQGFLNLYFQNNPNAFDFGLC

[6] = target: Glutathione S-transferase omega-1 (Homo sapiens, UniProt P78417); assay: Substrates for human cytosolic glutathione transferase GSTO1
Glutathione S-transferase omega-1, sequence (P78417 whole entry): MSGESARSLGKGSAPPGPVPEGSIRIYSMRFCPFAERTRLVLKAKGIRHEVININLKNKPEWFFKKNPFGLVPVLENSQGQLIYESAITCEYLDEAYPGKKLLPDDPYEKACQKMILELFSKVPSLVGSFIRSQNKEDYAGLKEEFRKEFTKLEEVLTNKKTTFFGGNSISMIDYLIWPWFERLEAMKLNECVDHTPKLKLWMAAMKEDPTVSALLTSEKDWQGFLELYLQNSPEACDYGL

Sulfotransferase 2A1 = target: T4, Sulfotransferase 2A1 (Homo sapiens, UniProt Q06520); assay: Major substrate of human cytosolic sulfotransferase SULT2A1
T4 sequence (Q06520 whole entry): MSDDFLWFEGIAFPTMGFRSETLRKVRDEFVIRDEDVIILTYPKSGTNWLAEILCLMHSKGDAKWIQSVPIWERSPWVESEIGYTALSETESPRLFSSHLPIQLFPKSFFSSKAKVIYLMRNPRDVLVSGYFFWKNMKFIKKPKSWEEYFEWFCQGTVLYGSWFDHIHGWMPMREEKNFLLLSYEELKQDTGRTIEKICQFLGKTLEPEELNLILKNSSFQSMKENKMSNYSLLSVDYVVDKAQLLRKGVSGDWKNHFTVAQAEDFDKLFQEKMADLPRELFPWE

Sulfotransferase 2B1 [7] = target: T5, Sulfotransferase 2B1 (Homo sapiens, UniProt O00204); assay: Major substrate of human cytosolic sulfotransferase SULT2B1_v1
T5 sequence (O00204 whole entry): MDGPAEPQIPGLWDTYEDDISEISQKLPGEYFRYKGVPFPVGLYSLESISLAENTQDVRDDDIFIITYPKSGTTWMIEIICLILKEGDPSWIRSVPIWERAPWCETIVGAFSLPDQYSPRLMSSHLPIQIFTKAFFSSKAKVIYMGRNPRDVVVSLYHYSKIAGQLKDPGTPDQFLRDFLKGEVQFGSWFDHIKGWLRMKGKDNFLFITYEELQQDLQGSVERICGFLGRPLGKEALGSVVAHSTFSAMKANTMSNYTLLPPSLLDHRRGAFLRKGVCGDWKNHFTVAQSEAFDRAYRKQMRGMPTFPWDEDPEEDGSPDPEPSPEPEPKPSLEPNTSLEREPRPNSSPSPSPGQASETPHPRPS

Sulfotransferase 1E1 = target: T6, Sulfotransferase 1E1 (Homo sapiens, UniProt P49888); assay: Major substrate of human cytosolic sulfotransferase SULT1E1
T6 sequence (P49888 whole entry): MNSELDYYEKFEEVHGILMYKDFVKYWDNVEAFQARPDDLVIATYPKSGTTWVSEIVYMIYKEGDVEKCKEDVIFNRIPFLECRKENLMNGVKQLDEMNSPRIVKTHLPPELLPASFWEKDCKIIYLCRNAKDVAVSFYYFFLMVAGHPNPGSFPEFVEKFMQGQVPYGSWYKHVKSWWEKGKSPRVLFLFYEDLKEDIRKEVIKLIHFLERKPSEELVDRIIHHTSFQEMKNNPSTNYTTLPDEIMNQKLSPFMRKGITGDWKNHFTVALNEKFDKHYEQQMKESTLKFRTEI

Sulfotransferase 2B1 [8] = target: T5, Sulfotransferase 2B1; assay: Major substrate of human cytosolic sulfotransferase SULT2B1_v2
[9] = target: UDP-glucuronosyltransferase 2B28 (Homo sapiens, UniProt Q9BY64); assay: Substrate of human UDP-glucuronosyltransferase UGT2B28
UDP-glucuronosyltransferase 2B28, sequence (Q9BY64 whole entry): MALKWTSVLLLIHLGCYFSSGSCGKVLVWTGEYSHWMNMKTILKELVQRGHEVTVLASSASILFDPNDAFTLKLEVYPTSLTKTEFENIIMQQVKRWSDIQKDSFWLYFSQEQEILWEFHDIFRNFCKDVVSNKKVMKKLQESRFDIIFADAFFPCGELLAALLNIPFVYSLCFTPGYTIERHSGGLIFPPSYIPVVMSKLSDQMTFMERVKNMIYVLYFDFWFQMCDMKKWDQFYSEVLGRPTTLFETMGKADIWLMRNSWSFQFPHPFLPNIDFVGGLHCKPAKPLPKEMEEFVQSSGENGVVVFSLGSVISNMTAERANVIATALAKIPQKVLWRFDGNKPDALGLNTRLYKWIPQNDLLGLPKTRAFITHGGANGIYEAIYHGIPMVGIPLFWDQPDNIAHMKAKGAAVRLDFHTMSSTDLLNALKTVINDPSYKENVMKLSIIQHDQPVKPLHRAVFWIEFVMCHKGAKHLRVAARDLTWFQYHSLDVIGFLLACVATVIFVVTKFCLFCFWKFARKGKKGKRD

[10] = target: T7, UDP-glucuronosyltransferase 1A6 (Homo sapiens, UniProt P19224); assay: Substrate of human UDP-glucuronosyltransferase UGT1A6
T7 sequence (P19224 whole entry): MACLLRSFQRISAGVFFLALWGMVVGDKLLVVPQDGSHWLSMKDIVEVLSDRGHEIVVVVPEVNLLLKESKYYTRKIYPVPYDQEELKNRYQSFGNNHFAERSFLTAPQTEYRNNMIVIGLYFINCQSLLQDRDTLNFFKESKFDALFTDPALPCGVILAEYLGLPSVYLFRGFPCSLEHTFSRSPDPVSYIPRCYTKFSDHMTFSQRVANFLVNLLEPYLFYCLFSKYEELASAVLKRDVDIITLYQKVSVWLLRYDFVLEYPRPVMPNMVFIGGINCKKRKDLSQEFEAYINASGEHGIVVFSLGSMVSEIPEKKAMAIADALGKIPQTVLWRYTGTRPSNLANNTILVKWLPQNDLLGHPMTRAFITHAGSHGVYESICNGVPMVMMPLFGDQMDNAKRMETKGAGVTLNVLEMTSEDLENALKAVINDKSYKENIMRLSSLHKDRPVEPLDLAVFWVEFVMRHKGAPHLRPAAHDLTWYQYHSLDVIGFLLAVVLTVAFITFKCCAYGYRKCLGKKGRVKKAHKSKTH

[11] = target: T8, UDP-glucuronosyltransferase 2B17 (Homo sapiens, UniProt O75795); assay: Substrate of human UDP-glucuronosyltransferase UGT2B17
T8 sequence (O75795 whole entry): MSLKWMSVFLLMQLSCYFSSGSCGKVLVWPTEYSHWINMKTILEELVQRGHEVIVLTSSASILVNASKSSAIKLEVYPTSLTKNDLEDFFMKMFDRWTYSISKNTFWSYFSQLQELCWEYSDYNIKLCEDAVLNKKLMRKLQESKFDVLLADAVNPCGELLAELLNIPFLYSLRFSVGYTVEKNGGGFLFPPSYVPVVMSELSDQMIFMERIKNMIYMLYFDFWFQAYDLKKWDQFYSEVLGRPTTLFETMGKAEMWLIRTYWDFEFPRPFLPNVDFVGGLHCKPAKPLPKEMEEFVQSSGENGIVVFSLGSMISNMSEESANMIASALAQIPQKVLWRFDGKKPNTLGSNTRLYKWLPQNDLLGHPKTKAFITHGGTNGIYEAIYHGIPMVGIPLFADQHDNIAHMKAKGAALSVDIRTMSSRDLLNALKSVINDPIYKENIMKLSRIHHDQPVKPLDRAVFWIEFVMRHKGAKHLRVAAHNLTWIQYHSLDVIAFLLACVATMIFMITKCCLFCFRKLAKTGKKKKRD

[12] = target: T9, UDP-glucuronosyltransferase 1A9 (Homo sapiens, UniProt O60656); assay: Substrate of human UDP-glucuronosyltransferase UGT1A9
T9 sequence (O60656 whole entry): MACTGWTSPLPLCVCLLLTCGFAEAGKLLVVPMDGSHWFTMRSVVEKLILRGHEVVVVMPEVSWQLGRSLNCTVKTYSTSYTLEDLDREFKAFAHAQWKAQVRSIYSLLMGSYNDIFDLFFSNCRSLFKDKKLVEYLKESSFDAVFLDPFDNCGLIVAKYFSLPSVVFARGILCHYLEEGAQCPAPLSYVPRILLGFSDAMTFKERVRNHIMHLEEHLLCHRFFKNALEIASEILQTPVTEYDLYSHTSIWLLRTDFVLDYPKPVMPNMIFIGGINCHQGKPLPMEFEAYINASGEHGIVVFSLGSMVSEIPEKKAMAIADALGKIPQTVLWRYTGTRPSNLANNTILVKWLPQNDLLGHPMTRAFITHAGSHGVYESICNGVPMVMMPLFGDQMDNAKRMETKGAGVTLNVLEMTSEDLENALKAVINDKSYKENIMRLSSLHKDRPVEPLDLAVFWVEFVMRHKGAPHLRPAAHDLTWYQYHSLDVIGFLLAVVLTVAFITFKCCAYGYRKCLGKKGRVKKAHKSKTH

[13] = target: Glutathione S-transferase 3, mitochondrial (Homo sapiens, UniProt O14880); assay: Substrates for human microsomal glutathione transferase MGST3
Glutathione S-transferase 3, mitochondrial, sequence (O14880 whole entry): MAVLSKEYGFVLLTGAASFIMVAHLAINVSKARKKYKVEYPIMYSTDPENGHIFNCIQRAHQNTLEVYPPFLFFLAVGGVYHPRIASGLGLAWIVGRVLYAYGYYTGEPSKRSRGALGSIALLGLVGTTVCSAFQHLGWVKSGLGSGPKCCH

[14] = target: Glutathione S-transferase Mu 4 (Homo sapiens, UniProt Q03013); assay: Substrates for human cytosolic glutathione transferase GSTM4
Glutathione S-transferase Mu 4, sequence (Q03013 whole entry): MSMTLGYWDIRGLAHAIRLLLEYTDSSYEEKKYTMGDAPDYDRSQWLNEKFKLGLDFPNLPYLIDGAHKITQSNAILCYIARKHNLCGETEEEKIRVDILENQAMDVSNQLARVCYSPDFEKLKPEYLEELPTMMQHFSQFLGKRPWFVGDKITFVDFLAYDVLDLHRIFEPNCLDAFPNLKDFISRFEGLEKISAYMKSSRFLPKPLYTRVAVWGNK

[15] = target: T10, Glutathione S-transferase kappa 1 (Homo sapiens, UniProt Q9Y2Q3); assay: Substrates for human mitochondrial glutathione transferase GSTK1
T10 sequence (Q9Y2Q3 whole entry): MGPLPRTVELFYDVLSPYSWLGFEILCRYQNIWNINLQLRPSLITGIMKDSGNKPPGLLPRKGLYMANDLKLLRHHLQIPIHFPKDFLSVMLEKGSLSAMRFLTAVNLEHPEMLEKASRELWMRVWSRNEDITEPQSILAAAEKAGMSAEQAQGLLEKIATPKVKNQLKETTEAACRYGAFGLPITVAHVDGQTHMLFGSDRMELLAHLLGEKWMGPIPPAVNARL

[16] = target: T11, Microsomal glutathione S-transferase 1 (Homo sapiens, UniProt P10620); assay: Substrates for human microsomal glutathione transferase MGST1
T11 sequence (P10620 whole entry): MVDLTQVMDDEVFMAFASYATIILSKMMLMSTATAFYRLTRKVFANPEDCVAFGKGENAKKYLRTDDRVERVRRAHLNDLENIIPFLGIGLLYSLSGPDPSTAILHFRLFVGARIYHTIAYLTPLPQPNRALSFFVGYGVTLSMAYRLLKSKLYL

[17] = target: Microsomal glutathione S-transferase 2 (Homo sapiens, UniProt Q99735); assay: Substrates for human microsomal glutathione transferase MGST2
Microsomal glutathione S-transferase 2, sequence (Q99735 whole entry): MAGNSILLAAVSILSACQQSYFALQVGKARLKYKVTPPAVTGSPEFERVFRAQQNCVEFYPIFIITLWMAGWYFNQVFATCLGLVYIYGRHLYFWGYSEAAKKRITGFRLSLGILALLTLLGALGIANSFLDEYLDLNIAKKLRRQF

[18] = target: Glutathione S-transferase Mu 5 (Homo sapiens, UniProt P46439); assay: Substrates for human cytosolic glutathione transferase GSTM5
Glutathione S-transferase Mu 5, sequence (P46439 whole entry): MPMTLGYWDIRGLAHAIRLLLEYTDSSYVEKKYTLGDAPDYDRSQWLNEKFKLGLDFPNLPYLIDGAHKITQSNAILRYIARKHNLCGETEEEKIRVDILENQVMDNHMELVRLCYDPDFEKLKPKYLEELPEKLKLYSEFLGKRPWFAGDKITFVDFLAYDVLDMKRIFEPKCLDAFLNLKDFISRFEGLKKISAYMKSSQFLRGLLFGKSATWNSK

Sulfotransferase 1A1 = Sulfotransferase 1A1 (Homo sapiens, UniProt P50225); assay: Major substrate of human cytosolic sulfotransferase SULT1A1
Sulfotransferase 1A1, sequence (P50225 whole entry): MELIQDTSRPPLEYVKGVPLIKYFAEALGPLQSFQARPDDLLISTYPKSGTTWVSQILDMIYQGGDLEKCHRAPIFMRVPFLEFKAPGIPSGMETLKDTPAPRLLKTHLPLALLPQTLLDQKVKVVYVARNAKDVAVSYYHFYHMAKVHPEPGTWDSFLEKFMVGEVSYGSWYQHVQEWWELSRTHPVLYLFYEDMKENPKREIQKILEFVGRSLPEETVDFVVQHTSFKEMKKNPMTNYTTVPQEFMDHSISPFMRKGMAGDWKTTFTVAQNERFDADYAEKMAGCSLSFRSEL

Measured: Activity

UDP-glucuronosyltransferase 2A1, sequence (P0DTE4 whole entry): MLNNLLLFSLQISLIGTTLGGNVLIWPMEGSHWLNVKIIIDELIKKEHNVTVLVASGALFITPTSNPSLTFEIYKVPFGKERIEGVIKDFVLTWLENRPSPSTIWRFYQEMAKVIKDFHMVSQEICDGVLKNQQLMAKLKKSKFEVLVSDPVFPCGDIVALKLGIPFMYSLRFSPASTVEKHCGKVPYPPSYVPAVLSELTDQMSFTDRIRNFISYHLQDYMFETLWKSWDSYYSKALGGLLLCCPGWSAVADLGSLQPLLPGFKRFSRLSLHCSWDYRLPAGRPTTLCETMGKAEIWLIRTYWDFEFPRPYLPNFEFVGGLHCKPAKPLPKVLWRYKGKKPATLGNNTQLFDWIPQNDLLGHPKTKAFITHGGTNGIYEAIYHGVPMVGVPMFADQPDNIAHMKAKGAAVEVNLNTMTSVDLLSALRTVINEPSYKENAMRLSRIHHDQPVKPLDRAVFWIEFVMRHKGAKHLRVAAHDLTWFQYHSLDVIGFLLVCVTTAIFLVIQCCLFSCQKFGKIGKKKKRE

CCCC(CCC)C(=O)O [VALPROIC ACID]
Substrate: [1] | [2] | [3] | [4]

O=C1OC(C(O)CO)C(=O)C1=O (stereo not drawn) [DEHYDROASCORBIC ACID]
Substrate: [5] | [6]

C[C@]12CC[C@H](O)CC1=CC[C@@H]1[C@@H]2CC[C@]2(C)C(=O)CC[C@@H]12 [PRASTERONE]
Substrate: Sulfotransferase 2A1 | Sulfotransferase 2B1 [7] | Sulfotransferase 1E1 | Sulfotransferase 2B1 [8]

CC(C)CCC[C@@H](C)[C@H]1CC[C@H]2[C@@H]3CC=C4C[C@@H](O)CC[C@]4(C)[C@H]3CC[C@]12C [CHOLESTEROL]
Substrate: Sulfotransferase 2B1 [8]

C[C@]12CC[C@H]3[C@@H](CCC4=CC(=O)CC[C@@]43C)[C@@H]1CC[C@@H]2O [TESTOSTERONE]
Substrate: [9] | Sulfotransferase 2A1

CC(=O)[C@H]1CC[C@H]2[C@@H]3CC=C4C[C@@H](O)CC[C@]4(C)[C@H]3CC[C@]12C [PREGNENOLONE]
Substrate: Sulfotransferase 2A1 | Sulfotransferase 2B1 [7] | Sulfotransferase 1E1

CC(C)Cc1ccc(C(C)C(=O)O)cc1 (stereo not drawn) [IBUPROFEN]
Substrate: [1] | [10] | [2] | [11] | [12] | [4]

O=[N+]([O-])c1ccc(Cl)c([N+](=O)[O-])c1 [DINITROCHLOROBENZENE]
Substrate: [13] | [14] | [15] | [16] | [17] | [18]

C[C@]12CC[C@@H]3c4ccc(O)cc4CC[C@H]3[C@@H]1CC[C@@H]2O [ESTRADIOL]
Substrate: [9] | [2] | Sulfotransferase 2A1 | Sulfotransferase 1A1 | Sulfotransferase 1E1

— ChEMBL document CHEMBL1743201, “Casarett and Doull's Toxicology The Basic Science of Poisons, 7th edition” (2008)
